In article PMC4459529 (Chemistry & biology, 2015):

Target: monoacylglycerol lipase (MGL) (Rattus norvegicus, UniProt Q8R431)
Test: biochemical

Chain of monoacylglycerol lipase (MGL) (Q8R431 whole entry): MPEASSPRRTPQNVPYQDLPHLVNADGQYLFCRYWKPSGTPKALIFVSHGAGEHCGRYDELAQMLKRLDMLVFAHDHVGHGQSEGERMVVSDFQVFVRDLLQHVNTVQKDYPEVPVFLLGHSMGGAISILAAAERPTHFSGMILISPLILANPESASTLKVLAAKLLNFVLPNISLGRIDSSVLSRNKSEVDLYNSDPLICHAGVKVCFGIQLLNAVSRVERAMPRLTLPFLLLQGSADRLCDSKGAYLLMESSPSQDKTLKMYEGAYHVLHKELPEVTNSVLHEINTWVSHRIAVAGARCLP

## OO [hydrogen peroxide]
  IC50: 8.2 ± 1.3 µM
